According to patent US20250215029A1 (Recludix Pharma, Inc., priority 2022, published 2025):
pIC50: −log10 of the molar value.

Experiments:
[1] = biological target: T1, Recombinant STAT3 protein (STAT3 (G127-I722)) (Homo sapiens, UniProt P40763); assay: STAT3 Fluorescence Polarization (FP) Assay; assay type: binding; conditions: STAT3 (G127-I722) 25 nM, probe 5-FAM-GpYLPQTV-NH2 2 nM, 45-minute incubation; read-out: STAT3 (FP assay IC50 class)
T1 construct: Recombinant STAT3 protein (STAT3 (G127-I722))
Summary of the method: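 Displacement of a 2 nM 5-FAM-labelled pY peptide (GpYLPQTV) from 25 nM recombinant STAT3 (G127-I722) was monitored by fluorescence polarization. Incubation lasted 45 min at room temperature in pH 7.4 HEPES buffer containing 1% DMSO.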

[2] = biological target: T2, Recombinant STAT6 protein (STAT6 (W123-T658)) (Homo sapiens, UniProt P42226); assay: STAT6 Fluorescence Polarization (FP) Assay; assay type: binding; conditions: STAT6 (W123-T658) 250 nM, probe 5-FAM-Ap[…]-NH2 2 nM, 45-minute incubation; read-out: STAT6 (FP assay IC50 class)
T2 construct: Recombinant STAT6 protein (STAT6 (W123-T658))
T2 sequence (P42226 123-658): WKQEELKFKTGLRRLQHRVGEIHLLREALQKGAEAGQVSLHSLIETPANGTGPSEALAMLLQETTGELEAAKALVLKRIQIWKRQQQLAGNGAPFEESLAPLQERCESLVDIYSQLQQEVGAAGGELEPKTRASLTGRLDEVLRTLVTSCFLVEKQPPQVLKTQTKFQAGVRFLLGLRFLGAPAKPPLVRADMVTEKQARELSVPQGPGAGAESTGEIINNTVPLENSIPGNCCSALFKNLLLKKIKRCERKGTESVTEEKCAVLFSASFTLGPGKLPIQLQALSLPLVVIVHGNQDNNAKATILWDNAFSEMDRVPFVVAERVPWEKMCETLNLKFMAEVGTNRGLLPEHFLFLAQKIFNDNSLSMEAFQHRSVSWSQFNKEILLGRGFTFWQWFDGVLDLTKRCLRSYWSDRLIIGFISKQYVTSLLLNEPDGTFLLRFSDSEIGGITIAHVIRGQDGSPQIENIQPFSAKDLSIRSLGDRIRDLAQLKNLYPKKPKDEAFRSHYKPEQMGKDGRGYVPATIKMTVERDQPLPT
Summary of the method: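 Protein-probe mix (250 nM STAT6 W123-T658, 2 nM 5-FAM-pTyr peptide) in 10 mM HEPES pH 7.4, 50 mM NaCl, 1 mM EDTA, 0.05% Tween 20, 2 mM DTT; added to compound dilution series, 1% DMSO final; 45 min RT; FP read; IC50 via nonlinear regression.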

T1 sequence (P40763 127-722): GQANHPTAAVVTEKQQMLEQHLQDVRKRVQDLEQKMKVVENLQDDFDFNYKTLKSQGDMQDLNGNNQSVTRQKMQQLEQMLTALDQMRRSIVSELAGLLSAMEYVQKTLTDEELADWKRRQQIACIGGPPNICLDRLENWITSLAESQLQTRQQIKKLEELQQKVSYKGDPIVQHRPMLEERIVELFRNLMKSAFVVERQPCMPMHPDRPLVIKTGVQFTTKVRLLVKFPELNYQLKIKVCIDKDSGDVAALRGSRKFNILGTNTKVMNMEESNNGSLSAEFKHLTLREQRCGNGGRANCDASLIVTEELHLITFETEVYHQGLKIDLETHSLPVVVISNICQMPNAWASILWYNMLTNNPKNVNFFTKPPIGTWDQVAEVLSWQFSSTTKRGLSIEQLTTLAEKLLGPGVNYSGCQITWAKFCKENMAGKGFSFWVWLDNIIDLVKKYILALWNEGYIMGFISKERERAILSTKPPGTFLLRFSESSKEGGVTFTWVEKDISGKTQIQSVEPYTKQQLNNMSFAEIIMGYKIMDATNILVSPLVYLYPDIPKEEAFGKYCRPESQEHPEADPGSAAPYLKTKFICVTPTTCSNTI

SMILES	pIC50 [1]	pIC50 [2]
O=C(N[C@H]1CCCC[C@H]2CC[C@@H](C(=O)N3CC(OCC(F)F)(c4cccnc4)C3)N2C1=O)c1cc2cc(C(F)P(=O)(O)O)ccc2s1 (stereo partly drawn) [Compound 616, ((2-(((3S,6S,10aS)-3-(3-(2,2-difluoroethoxy)-3-(pyridin-3-yl)azetidine-1-carbonyl)-5-oxodecahydropyrrolo [1,2-a]azocin-6-yl)carbamoyl)benzo [b]thiophen-5-yl)fluoromethyl) phosphonic acid]	> 7.00	4.52 to 5.52
Cn1ccc(=O)c(C2CN(C(=O)[C@@H]3CC[C@@H]4CCC[C@H](NC(=O)c5cc6cc(C(F)P(=O)(O)O)ccc6s5)C(=O)N43)C2)c1 (stereo partly drawn) [Compound 617, (fluoro(2-(((3S,6S,9aS)-3-(3-(1-methyl-4-oxo-1,4-dihydropyridin-3-yl)azetidine-1-carbonyl)-5-oxooctahydro-1H-pyrrolo[1,2-a]azepin-6-yl)carbamoyl)benzo [b]thiophen-5-yl)methyl) phosphonic acid]	6.00 to 7.00	4.52 to 5.52
CCc1ccncc1C1CN(C(=O)[C@@H]2CC[C@@H]3CCC[C@H](NC(=O)c4cc5cc(CP(=O)(O)O)ccn5n4)C(=O)N32)C1 [Compound 618, ((2-(((3S,6S,9aS)-3-(3-(4-ethylpyridin-3-yl)azetidine-1-carbonyl)-5-oxooctahydro-1H-pyrrolo[1,2-a]azepin-6-yl)carbamoyl)pyrazolo[1,5-a]pyridin-5-yl)methyl) phosphonic acid]	5.00 to 6.00	4.52 to 5.52
O=C(N[C@H]1CCC[C@H]2CC[C@@H](C(=O)N3CC(c4ccnc(O)c4)C3)N2C1=O)c1cc2cc(C(F)P(=O)(O)O)ccc2s1 (stereo partly drawn) [Compound 619, (fluoro(2-(((3S,6S,9aS)-3-(3-(2-hydroxypyridin-4-yl)azetidine-1-carbonyl)-5-oxooctahydro-1H-pyrrolo[1,2-a]azepin-6-yl)carbamoyl)benzo [b]thiophen-5-yl)methyl) phosphonic acid]	6.00 to 7.00	4.52 to 5.52
O=C(N[C@H]1CCC[C@H]2CC[C@@H](C(=O)N3CC(n4ccc(=O)nc4)C3)N2C1=O)c1cc2cc(C(F)P(=O)(O)O)ccc2s1 (stereo partly drawn) [Compound 620, (fluoro(2-(((3S,6S,9aS)-5-oxo-3-(3-(4-oxopyrimidin-1(4H)-yl)azetidine-1-carbonyl)octahydro-1H-pyrrolo[1,2-a]azepin-6-yl)carbamoyl)benzo [b]thiophen-5-yl)methyl) phosphonic acid]	6.00 to 7.00	5.52 to 6.52
O=C(N[C@H]1CCCC[C@H]2CC[C@@H](C(=O)N3CC(OCC(F)F)(c4ccccn4)C3)N2C1=O)c1cc2cc(C(F)P(=O)(O)O)ccc2s1 (stereo partly drawn) [Compound 621, ((2-(((3S,6S,10aS)-3-(3-(2,2-difluoroethoxy)-3-(pyridin-2-yl)azetidine-1-carbonyl)-5-oxodecahydropyrrolo [1,2-a]azocin-6-yl)carbamoyl)benzo [b]thiophen-5-yl)fluoromethyl) phosphonic acid]	> 7.00	4.52 to 5.52
O=C(N[C@H]1CCC[C@H]2CC[C@@H](C(=O)N3CC(c4ncccc4F)C3)N2C1=O)c1cc2cc(C(F)P(=O)(O)O)ccc2s1 (stereo partly drawn) [Compound 623, (fluoro(2-(((3S,6S,9aS)-3-(3-(3-fluoropyridin-2-yl)azetidine-1-carbonyl)-5-oxooctahydro-1H-pyrrolo[1,2-a]azepin-6-yl)carbamoyl)benzo [b]thiophen-5-yl)methyl) phosphonic acid]	6.00 to 7.00	4.52 to 5.52
Cn1cncc(C2CN(C(=O)[C@@H]3CC[C@@H]4CCC[C@H](NC(=O)c5cc6cc(C(F)P(=O)(O)O)ccc6s5)C(=O)N43)C2)c1=O (stereo partly drawn) [Compound 624, (fluoro(2-(((3S,6S,9aS)-3-(3-(1-methyl-6-oxo-1,6-dihydropyrimidin-5-yl)azetidine-1-carbonyl)-5-oxooctahydro-1H-pyrrolo[1,2-a]azepin-6-yl)carbamoyl)benzo [b]thiophen-5-yl)methyl) phosphonic acid]	5.00 to 6.00	4.52 to 5.52
COc1c(F)cncc1C1CN(C(=O)[C@@H]2CC[C@@H]3CCC[C@H](NC(=O)c4cc5cc(C(F)P(=O)(O)O)ccc5s4)C(=O)N32)C1 (stereo partly drawn) [Compound 625, (fluoro(2-(((3S,6S,9aS)-3-(3-(5-fluoro-4-methoxypyridin-3-yl)azetidine-1-carbonyl)-5-oxooctahydro-1H-pyrrolo[1,2-a]azepin-6-yl)carbamoyl)benzo [b]thiophen-5-yl)methyl) phosphonic acid]	6.00 to 7.00	4.52 to 5.52
O=C(N[C@H]1CCC[C@H]2CC[C@@H](C(=O)N3CC(c4cnccc4N4CCOCC4)C3)N2C1=O)c1cc2cc(C(F)P(=O)(O)O)ccc2s1 (stereo partly drawn) [Compound 626, (fluoro(2-(((3S,6S,9aS)-3-(3-(4-morpholinopyridin-3-yl)azetidine-1-carbonyl)-5-oxooctahydro-1H-pyrrolo[1,2-a]azepin-6-yl)carbamoyl)benzo [b]thiophen-5-yl)methyl) phosphonic acid]	> 7.00	4.52 to 5.52
CS(=O)(=O)CC1CN(C(=O)[C@@H]2CC[C@@H]3CCC[C@H](NC(=O)c4cc5cc(C(F)P(=O)(O)O)ccc5s4)C(=O)N32)C1 (stereo partly drawn) [Compound 627, (fluoro(2-(((3S,6S,9aS)-3-(3-((methylsulfonyl)methyl)azetidine-1-carbonyl)-5-oxooctahydro-1H-pyrrolo[1,2-a]azepin-6-yl)carbamoyl)benzo [b]thiophen-5-yl)methyl) phosphonic acid]	> 7.00	4.52 to 5.52

Next, values leading:

pIC50 [1]	pIC50 [2]	SMILES
> 7.00	4.52 to 5.52	Cn1cccc(C2CN(C(=O)[C@@H]3CC[C@@H]4CCC[C@H](NC(=O)c5cc6cc(C(F)P(=O)(O)O)ccc6s5)C(=O)N43)C2)c1=O (stereo partly drawn) [Compound 628, (fluoro(2-(((3S,6S,9aS)-3-(3-(1-methyl-2-oxo-1,2-dihydropyridin-3-yl)azetidine-1-carbonyl)-5-oxooctahydro-1H-pyrrolo[1,2-a]azepin-6-yl)carbamoyl)benzo [b]thiophen-5-yl)methyl) phosphonic acid]
6.00 to 7.00	4.52 to 5.52	COc1c(C2CN(C(=O)[C@@H]3CC[C@@H]4CCC[C@H](NC(=O)c5cc6cc(C(F)P(=O)(O)O)ccc6s5)C(=O)N43)C2)cnn1C (stereo partly drawn) [Compound 629, (fluoro(2-(((3S,6S,9aS)-3-(3-(5-methoxy-1-methyl-1H-pyrazol-4-yl)azetidine-1-carbonyl)-5-oxooctahydro-1H-pyrrolo[1,2-a]azepin-6-yl)carbamoyl)benzo [b]thiophen-5-yl)methyl) phosphonic acid]
6.00 to 7.00	4.52 to 5.52	O=C(N[C@H]1CCC[C@H]2CC[C@@H](C(=O)N3CC4(C3)OCc3ccncc34)N2C1=O)c1cc2cc(C(F)P(=O)(O)O)ccc2s1 (stereo partly drawn) [Compound 630, (fluoro(2-(((3S,6S,9aS)-5-oxo-3-(1′H-spiro[azetidine-3,3′-furo [3,4-c]pyridine]-1-carbonyl)octahydro-1H-pyrrolo[1,2-a]azepin-6-yl)carbamoyl)benzo [b]thiophen-5-yl)methyl) phosphonic acid]
5.00 to 6.00	4.52 to 5.52	O=C(N[C@H]1CCC[C@H]2CC[C@@H](C(=O)N3CC(c4cnccc4OC(F)F)C3)N2C1=O)c1cc2cc(CP(=O)(O)O)ccc2s1 [Compound 632, ((2-(((3S,6S,9aS)-3-(3-(4-(difluoromethoxy)pyridin-3-yl)azetidine-1-carbonyl)-5-oxooctahydro-1H-pyrrolo[1,2-a]azepin-6-yl)carbamoyl)benzo [b]thiophen-5-yl)methyl) phosphonic acid]
6.00 to 7.00	4.52 to 5.52	COc1ccn(C2CN(C(=O)[C@@H]3CC[C@@H]4CCC[C@H](NC(=O)c5cc6cc(C(F)P(=O)(O)O)ccc6s5)C(=O)N43)C2)n1 (stereo partly drawn) [Compound 633, (fluoro(2-(((3S,6S,9aS)-3-(3-(3-methoxy-1H-pyrazol-1-yl)azetidine-1-carbonyl)-5-oxooctahydro-1H-pyrrolo[1,2-a]azepin-6-yl)carbamoyl)benzo [b]thiophen-5-yl)methyl) phosphonic acid]
6.00 to 7.00	4.52 to 5.52	Cn1ncc(C2CN(C(=O)[C@@H]3CC[C@@H]4CCC[C@H](NC(=O)c5cc6cc(C(F)P(=O)(O)O)ccc6s5)C(=O)N43)C2)c1F (stereo partly drawn) [Compound 635, (fluoro(2-(((3S,6S,9aS)-3-(3-(5-fluoro-1-methyl-1H-pyrazol-4-yl)azetidine-1-carbonyl)-5-oxooctahydro-1H-pyrrolo[1,2-a]azepin-6-yl)carbamoyl)benzo [b]thiophen-5-yl)methyl) phosphonic acid]
